From EP4653000A1, “INHIBITORS OF PSEUDOMONAS AERUGINOSA ELASTASE (LASB) FOR THE TREATMENT OF PSEUDOMONAS KERATITIS” (Helmholtz-Zentrum für Infektionsforschung GmbH, priority 2024, dated 2025)

How the values were obtained:
[1] = Concentration of HIPS-7178 in eye homogenate and serum in the keratitis model (HPLC-MS/MS); format: in vivo, C57BL/6N mice; conditions: topical 5 µL of 1 mg/mL every eight hours along 72h; Figure 2 (a)
Experimental: Animals. The animal experiments were approved by Saarland University's Animal Welfare Committee (Application number: 17/2021) and conducted in accordance with German and European recommendations and guidelines for the ethical use of animals. The laboratory animals were all C57BL/6N female eight to eleven months old mice. Unlimited access to water and show was secured. Temperature was closely maintained around 22 °C and relative air humidity around 50%. Light and darkness alternated at twelve-hour intervals. All laboratory animals were purchased from Charles River GmbH, Sulzfeld, Germany.
Infection procedure. Anesthesia and infection were performed as previously published. […]
Documentation and Treatment. […] Keratitis severity was visualized using a stereomicroscope (Leitz ELVAR, Wetzlar, Germany) at 16× magnification combined with a high-resolution microscope digital camera (Seben GmbH, Berlin, Germany) and evaluated using a previously described clinical scoring scheme (Lyu et al., 2020). […] The body weight of the mice was measured daily and used as welfare indicator. General condition and behavior were also recorded daily. […]

[2] = test system: P. aeruginosa strain PA54; experiment: LasB and desmosin levels in eye homogenate in the experimental bacterial keratitis model (LC-MS/MS); format: in vivo, C57BL/6N mice; conditions: for LasB levels in eye homogenate: compared with vehicle (highest levels), p < 0.05, Figure 2 (b)
[3] = test system: P. aeruginosa strain PA54; experiment: Antibiotic susceptibility / minimum inhibitory concentration (MIC) of strain PA54; format: cell-based, Pseudomonas aeruginosa; conditions: strain PA54, clinical isolate from eye wound swab
Description: Pseudomonas aeruginosa. The P. aeruginosa strain PA54 was employed to induce an experimental bacterial keratitis in the aforementioned C57BL/6N mice. The strain PA54 was isolated from a human infection (wound swab from the eye) and collected at Saarland University Medical Center's Institute for Medical Microbiology and Hygienics (IMMH) in 2009.

CC(=O)c1ccc(NC(=O)[C@@H](NC(=O)C(CC(C)C)P(=O)(O)O)C(C)C)cc1 (some centres unmarked) [HIPS-7178]
HIPS-7178 concentrations in eye homogenate and serum [1]: similarly high | LasB levels in eye homogenate [2]: reduced levels

CO/N=C(\C(=O)N[C@@H]1C(=O)N2C(C(=O)[O-])=C(C[N+]3(C)CCCC3)CS[C@H]12)c1csc(N)n1 [cefepime]
sensibility of PA54 (multidrug-resistant classification) [3]: lacking sensibility

CC(C)(O/N=C(\C(=O)N[C@@H]1C(=O)N2C(C(=O)[O-])=C(C[n+]3ccccc3)CS[C@H]12)c1csc(N)n1)C(=O)O [ceftazidime]
sensibility of PA54 (multidrug-resistant classification) [3]: lacking sensibility

C[C@@H]1O[C@@H]1P(=O)(O)O [fosfomycin]
sensibility of PA54 (multidrug-resistant classification) [3]: lacking sensibility

C[C@@H](O)[C@H]1C(=O)N2C(C(=O)O)=C(S[C@@H]3CN[C@H](C(=O)N(C)C)C3)[C@H](C)[C@H]12 [meropenem]
Desmosin levels in eye ([2]; compared with uninfected control, Figure 2 (c)): similarly high levels as uninfected group | LasB levels in eye homogenate [2]: reduced levels

gentamicin
sensibility of PA54 (multidrug-resistant classification) [3]: lacking sensibility
